Laboratory results as given in patent US5410018A, “Bombesin-related peptides” (Oregon Regional Primate Research Center, priority 1994, dated 1995).
Non-standard residues stand in square brackets, D forms with d. Residues, ends and D or L forms follow the SMILES beside them. No end group written: not given here. pGlu = O=C1CC[C@@H](C(=O)O)N1

Columns and labels:
[1] = test system: Swiss 3T3/1R mouse embryo fibroblast cells; experiment: Thymidine uptake assay in Swiss 3T3 cells; format: cell-based; details: 24 h
Procedure: Swiss 3T3/1R mouse embryo fibroblast cells were plated in 24 well tissue culture plates at a density of 2×10^4 cells in 1 ml of Dublbecco's modified eagles medium (DMEM) supplemented with 40 mM glutamine (Gln) in 10% fetal bovine serum. Cells were incubated 3 or 4 days at […] in a humidified atmosphere at 95% air/5% CO2 before replacing the growth medium with DMEM/Gln and 250 μg/ml gentamicin. On the following day, 1 μCi thymidine was added to all wells, and activity was addressed by addition of test peptides alone or in the presence on 3 nM bombesin, respectively. After 24 h, the cells were rinsed with icecold isotonic saline and treated with ice-cold 5% trichloroacetic acid for 30 min. Cells were then rinsed with 95% ethanol and incubated with 0.1 N NaOH overnight at room temperature. One ml aliquots of neutralized samples were counted in a Packard Tri-Carb liquid scintillation analyzer. Test sample activity was measured in 2 independent experiments performed in quadruplicate.
This experiment was performed using 5 test samples: (1) bombesin (3 nM); (2) BIM-26336; (3) BIM-26337; (4) bombesin (3 nM) and BIM-26336; and (5) bombesin (3 nM)+BIM-26337. The results of these experiments are depicted on FIG. 6, wherein the x-axis depicts concentration of the respective SAP bombesin and the y-axis depicts disintegration per minute.

human GRP receptor = target: T1, human GRP receptor (Homo sapiens, UniProt P30550); experiment: Calcium uptake functional assay in xenopus oocytes expressing the human GRP receptor (aequorin luminometry); format: cell-based; details: xenopus oocytes coinjected with GRP receptor RNA and aequorin
T1 construct: expressed in transfected cells; host or cells: Xenopus oocytes injected with GRP receptor RNA and aequorin
Procedure: (§1) The ability of BIM-26336 and BIM-26337 to activate both the GRP and NMB receptors were analyzed using a calcium uptake functional assay.
Xenopus oocytes were coinjected with both GRP receptor RNA and calcium photoprotein aequorin. The ability of SAP bombesins to induce change in intracellular calcium levels within the cells can be measured luminometrically.
(§2) The ability of bombesin, NMB, SAP bombesin-14, and SAP bombesin-10 to agonize the receptor was tested.

NMB receptor = NMB receptor (Rattus norvegicus, UniProt P24053); experiment: biochemical
Procedure: Membranes of the NMB receptor used in the binding assay were obtained by homogenizing rat olfactory bulb tissue (Polytron, setting 6, 15 sec) in ice-cold 50 mM Tris-HC1 (Buffer A) and centrifuging twice as 39,000 x g (10 min), with an intermediate resuspension in fresh buffer. The final pellets were resuspended in the 50 mM Tris-HCl, containing 0.1 mg/ml bacitracin, and 0.1% BSA (Buffer B), and held on ice for the receptor binding assay. For the assay, aliquots (0.4 ml) were incubated with 0.05 ml [^125 I] NMB (-2200 Ci/mmol, New England Nuclear) and Buffer B, with and without 0.05 ml of unlabeled competing peptides. The experiment was performed with BIM-26336, […], GRP, and NMB as competing peptides.
After a 30 min incubation (4° C.), the bound [^125 I]NMB was separated from the free by rapid filtration through GF/B filters which had been previously soaked in 0.3% polyethyleneimine. The filters were then washed three times with 5 ml aliquots of ice-cold Buffer A. Specific binding was defined as the total [125I] NMB bound minus that bound in the presence of 1 μM unlabeled NMB.

GRP receptor = GRP receptor (Rattus norvegicus, UniProt P52500); experiment: biochemical
Procedure: Membranes of the GRP receptor used in the binding assay were obtained by homogenizing cultured AR42J cells (Polytron, setting 6, 15 sec) in ice-cold 50 mM Tris-HC1 (Buffer A) and centrifuging twice as 39,000 x g (10 min), with an intermediate resuspension in fresh buffer. The final pellets were resuspended in the 50 mM Tris-HCl, containing 0.1 mg/ml bacitracin, and 0.1% BSA (Buffer B), and held on ice for the receptor binding assay. […] The experiment was performed with BIM-26336, […], GRP, and NMB as competing peptides.

human NMB receptor = target: T2, human NMB receptor (Homo sapiens, UniProt P28336); experiment: Calcium uptake functional assay in xenopus oocytes expressing the human NMB receptor (aequorin luminometry); format: cell-based; details: xenopus oocytes coinjected with NMB receptor RNA and aequorin
T2 construct: expressed in transfected cells; host or cells: Xenopus oocytes injected with NMB receptor RNA and aequorin
Procedure: as §1
Xenopus oocytes, a frog egg naturally deprived of any receptors, were coinjected with both NMB receptor RNA and calcium photoprotein aequorin. The ability of SAP bombesins to induce change in intracellular calcium levels within the cells were measured luminometrically. See Spindel, et al., Recent Progress in Hormone Research 48:365 (1993); Corjay, et al., J. Biol. Chem. 266:18771 (1991); and Giladi et al., BioTechniques 10:744 (1991), all of which are hereby incorporated by reference.
as §2

Chain of GRP receptor (P52500 whole entry): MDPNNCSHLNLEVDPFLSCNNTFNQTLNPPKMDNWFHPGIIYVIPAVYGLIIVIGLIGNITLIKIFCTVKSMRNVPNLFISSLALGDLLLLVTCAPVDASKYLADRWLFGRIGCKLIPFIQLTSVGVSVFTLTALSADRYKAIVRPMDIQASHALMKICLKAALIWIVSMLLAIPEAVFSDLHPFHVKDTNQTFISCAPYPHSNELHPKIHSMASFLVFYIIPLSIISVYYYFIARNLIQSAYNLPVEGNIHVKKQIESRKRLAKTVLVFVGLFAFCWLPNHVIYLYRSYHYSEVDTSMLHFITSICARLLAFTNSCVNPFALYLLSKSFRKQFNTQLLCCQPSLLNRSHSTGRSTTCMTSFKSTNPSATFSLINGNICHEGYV
Chain of NMB receptor (P24053 whole entry): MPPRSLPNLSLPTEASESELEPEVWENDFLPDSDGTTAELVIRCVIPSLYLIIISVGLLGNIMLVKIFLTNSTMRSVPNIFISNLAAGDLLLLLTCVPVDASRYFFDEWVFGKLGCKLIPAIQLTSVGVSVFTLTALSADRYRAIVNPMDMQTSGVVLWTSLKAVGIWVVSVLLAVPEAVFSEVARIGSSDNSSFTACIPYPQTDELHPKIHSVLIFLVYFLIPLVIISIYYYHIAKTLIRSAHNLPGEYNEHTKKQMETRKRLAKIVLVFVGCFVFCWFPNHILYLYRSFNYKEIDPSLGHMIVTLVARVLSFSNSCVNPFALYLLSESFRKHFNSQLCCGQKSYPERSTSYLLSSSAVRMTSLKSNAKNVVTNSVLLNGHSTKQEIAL
T2 sequence (P28336 whole entry): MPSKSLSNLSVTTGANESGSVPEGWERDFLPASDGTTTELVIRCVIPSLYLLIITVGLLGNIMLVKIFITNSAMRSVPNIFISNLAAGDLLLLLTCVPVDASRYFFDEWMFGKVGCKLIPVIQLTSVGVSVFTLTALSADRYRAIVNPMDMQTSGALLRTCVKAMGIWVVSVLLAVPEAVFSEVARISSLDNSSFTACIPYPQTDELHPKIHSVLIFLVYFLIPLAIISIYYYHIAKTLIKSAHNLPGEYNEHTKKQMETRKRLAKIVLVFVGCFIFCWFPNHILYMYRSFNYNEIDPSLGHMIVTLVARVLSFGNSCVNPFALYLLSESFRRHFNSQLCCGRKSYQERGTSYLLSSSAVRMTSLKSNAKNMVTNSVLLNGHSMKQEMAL
T1 sequence (P30550 whole entry): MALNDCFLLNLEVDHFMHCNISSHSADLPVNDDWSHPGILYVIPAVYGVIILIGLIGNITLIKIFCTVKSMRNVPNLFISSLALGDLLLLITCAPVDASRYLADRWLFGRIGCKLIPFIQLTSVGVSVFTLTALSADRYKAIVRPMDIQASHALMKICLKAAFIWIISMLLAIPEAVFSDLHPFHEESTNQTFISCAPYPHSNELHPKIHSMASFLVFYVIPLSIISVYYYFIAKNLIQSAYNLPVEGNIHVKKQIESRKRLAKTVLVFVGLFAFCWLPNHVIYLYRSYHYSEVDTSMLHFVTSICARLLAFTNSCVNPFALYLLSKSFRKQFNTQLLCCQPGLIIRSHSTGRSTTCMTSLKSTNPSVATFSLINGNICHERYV

Row | Molecule | thymidine uptake, peptide with bombesin ([1]; in the presence of 3 nM bombesin) | thymidine uptake, peptide alone ([1]; test peptide alone) | potency at the GRP receptor (intracellular calcium) (human GRP receptor) | Ki (NMB receptor) | Ki (GRP receptor) | binding selectivity between GRP and NMB receptors (GRP receptor; comparison of Ki at NMB and GRP receptors) | potency at the NMB receptor (intracellular calcium, relative to NMB) (human NMB receptor)
1 | CSCC[C@H](NC(=O)[C@H](Cc1ccccc1)NC(=O)[C@H](Cc1c[nH]cn1)NC(=O)CNC(=O)[C@H](CCCNC(=N)N)NC(=O)[C@H](C)NC(=O)[C@H](Cc1c[nH]c2ccccc12)NC(=O)[C@H](CCC(N)=O)NC(=O)[C@H](CC(N)=O)NC(=O)CNC(=O)[C@H](CC(C)C)NC(=O)[C@H](CO)NC(=O)[C@H](CCC(N)=O)NC(=O)[C@@H]1CCC(=O)N1)C(N)=O [BIM-26337, H-pGlu-Gln-Ser-Leu-Gly-Asn-Gln-Trp-Ala-Arg-Gly-His-Phe-Met-NH2] ([pGlu]QSLGNQWARGHFM-NH2) | substantially enhanced | induce thymidine uptake | significantly greater potency than SAP bombesin-10 | 610 nM | 6.4 nM | more selective binding of GRP than NMB receptors | approximately two log units less than that of NMB
2 | GNQWARGHFM-NH2 [BIM-26336, Gly-Asn-Gln-Trp-Ala-Arg-Gly-His-Phe-Met-NH2] | – | – | – | 15.1 nM | 6.6 nM | – | –
